{"source": "ChEMBL document CHEMBL3879916", "about": "“1-sulfonyl piperidine derivatives as modulators of prokineticin receptors” (2014)", "molecular_target": "Prokineticin receptor 1 (Homo sapiens, UniProt Q8TCW9)", "sequence (Q8TCW9 whole entry)": "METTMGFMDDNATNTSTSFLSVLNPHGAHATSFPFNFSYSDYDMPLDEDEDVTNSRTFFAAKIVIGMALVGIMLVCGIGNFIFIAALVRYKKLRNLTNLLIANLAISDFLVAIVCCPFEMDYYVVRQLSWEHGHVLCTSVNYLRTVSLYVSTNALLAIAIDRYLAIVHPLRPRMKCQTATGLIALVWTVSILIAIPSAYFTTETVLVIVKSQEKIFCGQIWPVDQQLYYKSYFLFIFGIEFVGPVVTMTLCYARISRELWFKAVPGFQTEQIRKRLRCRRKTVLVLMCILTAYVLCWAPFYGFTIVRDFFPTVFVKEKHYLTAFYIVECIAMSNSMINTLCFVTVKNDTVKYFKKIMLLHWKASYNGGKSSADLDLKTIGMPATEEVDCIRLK", "experiment": "Antagonist activity at human PKR1 expressed in RBL2H3 cells assessed as inhibition of prokineticin1-mediated intracellular calcium release preincubated for 10 mins followed by PK1 addition by FLIPR assay", "type": "functional, cell-based, RBL-2H3"}
{"smiles": "Cc1n[nH]c(C)c1S(=O)(=O)N1CCC(=C(F)c2ccc(F)cc2F)CC1", "values": [{"measurement": "IC50", "value": 1.63, "unit": "µM"}]}
